Reference: US20090030083A1, “Use of n-(2-aryl-propionyl)-sulfonamides for the treatment of spinal cord injury” (Dompe' pha.r.ma S.p.A, priority 2004, published 2009)

What was measured:
CD68 positive cells = assay: leukocyte infiltration after SCI (CD68 positive cells); type: in vivo, rat; settings: for Number of infiltrated leukocytes (mean ± SE; n = 8): 15 mg/kg i.v. then s.c.
Description: (§1) Adult Sprague-Dawley rats (females) weighing 240-260 g were maintained in the animal facilities under standard housing conditions (22±2° C., 65% humidity, artificial light from 06.00-20.00 h). A standard dry diet and water were available ad libitum. SCI in the rat was performed as previously reported (Gorio A. et al. Proc. Natl. Acad. Sci. USA 99, 9450-9455, 2002). The lesioning apparatus is computer controlled and free of the influence of gravity force. The force applied was 1N per 1 second. Leukocyte infiltration was quantitatively estimated by CD68 positive cells 1 and 7 days after SCI. […] The following days the animals were treated s.c. at 8 am and 5 pm until the 7th day after SCI. Animals were treated with compound of formula (III) (8 mg/kg) by i.v. injection within 30 minutes after SCI, then s.c. 24 hours after SCI. The following days the animals were treated s.c. every 36 hours until the 7th day after SCI.

SCI in the rat [1] = assay: extension of post-traumatic cavity / spared tissue at lesion site (histology); type: in vivo; settings: 28 days after SCI; for Percentage of spared tissue at lesion site (mean ± SE; n = 12), Lesion Epicenter: saline 39.8 ± 3.9; for Percentage of spared tissue at lesion site (mean ± SE; n = 12), Cavity Volume: saline 46.6 ± 3.1
Description: as §1, with “Extension of post-traumatic cavity” for “Leukocyte infiltration”, “performed” for “quantitatively estimated”, “classical histological techniques 28” for “CD68 positive cells 1 and 7”

oligodendrocytes = assay: apoptosis of oligodendrocytes after SCI (TUNEL); type: in vivo, rat; settings: 28 days after SCI; for inhibition of oligodendrocyte apoptosis: vs saline; for Number of oligodendrocyte apoptic nuclei (mean ± SE; n = 12): gracilis and cuneatus fascicle, saline 14.9 ± 2
Description: Adult Sprague-Dawley rats (females) weighing 240-260 g were maintained in the animal facilities under standard housing conditions (22±2° C., 65% humidity, artificial light from 06.00-20.00 h). A standard dry diet and water were available ad libitum. SCI in the rat was performed as previously reported (Gorio A. et al. Proc. Natl. Acad. Sci. USA 99, 9450-9455, 2002). The lesioning apparatus is computer controlled and free of the influence of gravity force. The force applied was 1N per 1 second. Apoptosis of oligodendrocytes was determined at the level of the gracilis and cuneatus fascicle (3 mm rostrally from the site of contusion injury) 28 days after SCI using the terminal deoxynucleotidyltransferase-mediated dUTP and labeling (TUNEL) methodology. […] The following days the animals were treated s.c. at 8 am and 5 pm until the 7th day after SCI. Animals were treated with compound of formula (III) (8 mg/kg) by i.v. injection within 30 minutes after SCI, then s.c. 24 hours after SCI. The following days the animals were treated s.c. every 36 hours until the 7th day after SCI.

SCI in the rat [2] = assay: free locomotion test (BBB scale) after SCI, i.v./s.c. injection; type: in vivo; settings: i.v. within 30 minutes after SCI then s.c. until 7th day; (II) 15 mg/kg, (III) 8 mg/kg; FIG. 1 and 2
Description: Adult Sprague-Dawley rats (females) weighing 240-260 g were maintained in the animal facilities under standard housing conditions (22±2° C., 65% humidity, artificial light from 06.00-20.00 h). A standard dry diet and water were available ad libitum. […] The force applied was 1N per 1 second. Recovery from hind limb disability was evaluated by means of “free locomotion test” performed 24 hours, 4, 7, 11, 15, 19 and 27 days after SCI. The “free locomotion test” allows the detection of feet positioning, and joint rotation. The quality of functional recovery is quantitatively expressed according to the “BBB scale” developed at the Ohio University. Such a test allows the quantification of rat hind limb free locomotion deficits by observing their movements in an open space free of obstacles: 0—Lesioned rat cannot move either limbs 1—Small movement of a joint (heap or knee) From 2 to 6—Movement in progressive extension of the 3 joints 7—Good movement of the 3 joints 8—Animals walk without plantar support of the weight From 9 to 11—Animals walk from occasionally to progressively frequent with plantar support of the weight. 12—Occasional coordination of hind limbs and forelimbs during walk From 13 to 14—Progressive coordination with the forelimbs. 15—Consistent plantar support of weight and coordination during walk; occasional movement of fingers during advancement. […]

Row | Compound | Number of infiltrated leukocytes (mean ± SE; n = 8) (CD68 positive cells; Epicenter, 1 day from SCI, saline 125 ± 36) | Number of infiltrated leukocytes (mean ± SE; n = 8) (CD68 positive cells; Epicenter, 7 days from SCI, saline 235 ± 54) | Number of infiltrated leukocytes (mean ± SE; n = 8) (CD68 positive cells; Periphery, 1 day from SCI, saline 56 ± 13) | Number of infiltrated leukocytes (mean ± SE; n = 8) (CD68 positive cells; Periphery, 7 days from SCI, saline 99 ± 32) | inhibition of leukocyte infiltration (CD68 positive cells; at 24 hours and 7 days after SCI, vs saline) | tissue damage at the site of the lesion and extension of post-traumatic cavity, in words (SCI in the rat [1]) | Percentage of spared tissue at lesion site (mean ± SE; n = 12), Lesion Epicenter (SCI in the rat [1]) | Percentage of spared tissue at lesion site (mean ± SE; n = 12), Cavity Volume (SCI in the rat [1]) | inhibition of oligodendrocyte apoptosis (oligodendrocytes) | Number of oligodendrocyte apoptic nuclei (mean ± SE; n = 12) (oligodendrocytes) | functional hind limb recovery (motor score, BBB scale), in words (SCI in the rat [2])
1 | CC(C)Cc1ccc([C@@H](C)C(=O)NS(C)(=O)=O)cc1 [compound of formula (II), (R)-ibuprofen methanesulfonamide] | 24 ± 3 | 19 ± 3 | 3 ± 1 | 4 ± 2 | 80% | significantly reduced tissue damage | 48.9 ± 3.0 % | 58.2 ± 2.9 % | 85% | 2.1 ± 1.2 | –
2 | C[C@@H](C(=O)NS(C)(=O)=O)c1ccc(OS(=O)(=O)C(F)(F)F)cc1 [compound of formula (III), R-2-[(4′-trifluoromethanesulphonyloxy)phenyl]-N-methanesulfonyl propionamide] | – | – | – | – | – | significantly reduced tissue damage | 49.7 ± 4.2 % | 60.4 ± 4.3 % | 65% | 5.2 ± 3.8 | significantly promoted functional hind limb recovery
